The record followed here is patent publication US20070172933A1, “Thermally stable amidases” (priority 2003, published 2007).

For series [1], the system named is amidase. The experiment in a line: Substrate specificity of the isolated amidase (hydrolysis assay). Format: biochemical, Pseudonocardia thermophila. Here is the method: (§1) To carry out the hydrolysis assay, where not mentioned otherwise, use was made of a 5 mM benzamide solution in 500 μl of a 60 mM K-Na phosphate buffer, pH 7.2. The enzymatic reaction proceeded for one hour at 70° C. with addition of 5 μg of the enzyme. The reaction was stopped by cooling the reaction solution on ice. […] One unit (U) of amidase activity is defined as the amount of enzyme which catalyzes the formation of 1 μmol of benzoic acid per minute.
The substrate specificity of the amidase was tested at three different temperatures taking into account the substrate used in each case. For hydrolysis of amino acid amides, the reaction mixture was reacted for 3 h at 30° C., in the case of the aliphatic and cyclic amides 1 h at 50° C., and for aromatic amide substrates 1 h at 70° C. The enzymatic activity was then determined as described above. The control used was each batch without enzyme.

Series [2] relates to amidase. The experiment in a line: Enantioselectivity of the isolated amidase, chiral HPLC. The note with it: 70° C. Format: biochemical, Pseudonocardia thermophila. Here is the method:
For this, 10 μg of the purified amidase were incubated with a 5 mM racemic 2-phenylpropionamide solution for 3 h at 70° C., the end volume of the reaction batch being 500 μl. At 30-minute intervals, samples were taken from the reaction batch and analyzed by an HPLC measurement.
The product determination and quantification of the R-and S-stereoisomers of the 2-phenylpropionamide were determined by injecting defined amounts of the corresponding pure substances as standard. The enantiomeric excess (ee) was calculated on the basis of the peak area ratio obtained by the chirar HPLC measurement (ee^p=(S−R)/(S+R); ee^p (%)=(S−R)/(S+R) ×100; where p=product).
For the HPLC measurements, a chiral Chirobiotic T column (Astec, Whippany, USA) was used. The solvent used was ethanol and 20 mM potassium phosphate buffer, pH 7.2, having a volumetric ratio of 20:80. The elution was performed at room temperature using a flow rate of 0.8 ml min^−1. Detection was performed at a wavelength of 210 nm. The amfmonia concentration was studied using the phenol hypochloride method using the ammonia kit Spectroquant 114752 (Merck, Germany), the amount of ammonia released being determined spectrometrically using ammonium chloride as standard.

Series [3] relates to amidase. The experiment in a line: Effect of metals and inhibitors (reagents and ions) on amidase activity, benzamide hydrolysis. Format: biochemical, Pseudonocardia thermophila. The note with it: for Amidase activity in %: reagent 1 mM, preincubated 1 h at 22° C., benzamide, 1 h at 70° C. Here is the method: as §1
To study the effect of certain reagents and ions on amidase activity, a solution containing 5 μg of amidase and the reagent or ion was preincubated for 1 h at 22° C. in 50 mM phosphate buffer. A 5 mM solution of benzamide in 50 mM phosphate buffer was then added until the end concentration of the reagent in the reaction batch was 1 mM. The reaction was performed for 1 h at 70° C. The catalytic activity was determined as described above.

The nature of series [4]: Determination of the isoelectric point by isoelectric focusing. The class given is physicochemical, Pseudonocardia thermophila. Here is the method:
The isoelectric point was determined by means of isoelectric focusing using a Novex polyacrylamide gel (pH .3-10) and using a Novex electrophoresis chamber in accordance with the manufacturer's instructions (Novex, Invitrogen, Netherlands). The isoelectric point of the purified amidase was determined at pH 4.2.

The format of series [5] is physicochemical, Pseudonocardia thermophila. Particulars: pH 7.2. Here is the method:
In addition, the temperature stability of the enzymes was studied between 50° C. and 80° C. over a relatively long period. […] (middle curve, FIG. 5).

Series [6] in a line: Hydrolysis assay, specific activity of the purified amidase. Format: biochemical, Pseudonocardia thermophila. Particulars: benzamide as substrate, after purification. Here is the method: To carry out the hydrolysis assay, where not mentioned otherwise, use was made of a 5 mM benzamide solution in 500 μl of a 60 mM K-Na phosphate buffer, pH 7.2. The enzymatic reaction proceeded for one hour at 70° C. with addition of 5 μg of the enzyme. The reaction was stopped by cooling the reaction solution on ice. The concentration of the products obtained enzymatically (benzoic acid and ammonia) was determined by means of HPLC and spectrometrically, using the ammonia kit Spectroquant 114752 (Merck, Germany). One unit (U) of amidase activity is defined as the amount of enzyme which catalyzes the formation of 1 μmol of benzoic acid per minute.

Setting [7] is: Aliphatic amides, 1 h at 50° C.
The mark [8] stands for this setting: Amino acid amides, 3 h at 30° C.
The mark [9] stands for this setting: Heterocycles, temperature for this group not stated clearly.

Read-outs that look alike come from different tables or passages of the source.

Turning to `CC(O)C(N)=O` (racemic) [DL-lactamide], the Specific activity in the series on amidase [1] (setting [7]) worked out at 18.9 µmol/min/mg. On to `NC(=O)c1ccccc1N` [2-aminobenzamide], for which, in the series on amidase [1] (Aromatic amides, 1 h at 70° C.), the Specific activity was 3.4 µmol/min/mg.

The molecule `CSCCC(O)C(N)=O` (stereo not drawn) [2-hydroxy-4-(methylthio)butyramide] had a Specific activity with amidase [1] (setting [8]) of 5.7 µmol/min/mg. As for `CC(C(N)=O)c1ccccc1` (stereo not drawn) [2-phenylpropionamide], in the series with amidase [2] (5 mM racemic substrate, after 60 minutes), the conversion is listed as 50%. In the series on amidase [2] (5 mM racemic substrate, after 60 minutes, S-enantiomer product), the “enantiomeric excess ee^p” value was “greater than 95%”. Moreover, the “enantioselectivity of the purified amidase for the substrate” value in the series with amidase [2] (racemic substrate) is given as “highly S-selective”. Also, the Specific activity in the series with amidase [1] (Aromatic amides, 1 h at 70° C.) is 15.8 µmol/min/mg. For `NC(=O)Cc1c[nH]c2ccccc12` [3-indolylacetamide], the Specific activity with amidase [1] (Aromatic amides, 1 h at 70° C.) is 7.56 µmol/min/mg. Same read-out and setting: the same measure for `NC(=O)c1ccc(N)cc1` [4-aminobenzamide]: 6.5 µmol/min/mg. `[Ba+2]` [Ba^2+]: in the series on amidase [3], the “Amidase activity in %” value stood at 87%. As to `[Ca+2]` [Ca^2+], the “Amidase activity in %” value with amidase [3] amounted to 85%.

On to `[Co+2]` [Co^2+], for which the “Amidase activity in %” value in the series with amidase [3] was 0%.

With `[Cu+2]` [Cu^2+], in the series on amidase [3], the “Amidase activity in %” value was 26%. Take `O[C@@H](CS)[C@@H](O)CS` [DTT]: in the series with amidase [3], the “sensitivity of the amidases to the reagent (in words)” value (shortened to “sensitivity of the amidases”) is “increased” and the “Amidase activity in %” value is on record as 120%.

For `O=C(O)CN(CCN(CC(=O)O)CC(=O)O)CC(=O)O` [EDTA], in the series with amidase [3], the “sensitivity of the amidases” value is “insensitive” and the “Amidase activity in %” value is listed as 100%. `C[C@H](N)C(N)=O` [L-alaninamide]: in the series on amidase [1] (setting [8]), the Specific activity worked out at 10.5 µmol/min/mg. On the same count and under the same terms, the same measure for `CC(C)C[C@H](N)C(N)=O` [L-leucinamide]: 10.8 µmol/min/mg; for `CSCC[C@H](N)C(N)=O` [L-methioninamide]: 14.4 µmol/min/mg. The same measure, in the same setting: the same measure for `NC(=O)[C@@H]1CCCN1` [L-prolinamide]: 13.0 µmol/min/mg; for `CC(C)(C)[C@H](N)C(N)=O` [L-tert-leucinamide]: 0.08 µmol/min/mg.

Take `NC(=O)[C@@H](N)Cc1c[nH]c2ccccc12` [L-tryptophanamide]: in the series with amidase [1] (setting [8]), the Specific activity amounted to 10.3 µmol/min/mg.

In the series with amidase [1] (setting [8]), `CC(C)[C@H](N)C(N)=O` [L-valinamide] came in with a Specific activity of 13.0 µmol/min/mg. Take `[Mg+2]` [Mg^2+]: in the series with amidase [3], the “Amidase activity in %” value was found to be 90%. Same read-out and setting: the same measure for `[Mn+2]` [Mn^2+]: 98%; for `[Ni+2]` [Ni^2+]: 42%. For `CCCCCCCCCCCCOS(=O)(=O)[O-].[Na+]` [SDS], in the series with amidase [3], the “sensitivity of the amidases” value is on record as “insensitive” and the “Amidase activity in %” value came to 100%. As for `[Zn+2]` [Zn^2+], the “Amidase activity in %” value in the series on amidase [3] amounted to 93%.

Regarding `CC(N)=O` [acetamide], the Specific activity with amidase [1] (setting [7]) amounted to 15.7 µmol/min/mg. Still for that read-out and setting: the same measure for `NC(=O)CCCCC(N)=O` [adipamide]: 12.0 µmol/min/mg.

As to `NC(=O)c1ccccc1` [benzamide], the Specific activity in the series with amidase [1] (Aromatic amides, 1 h at 70° C.) is 19.4 µmol/min/mg. `NC=O` [formamide] yielded a Specific activity in the series on amidase [1] (setting [7]) of 9.2 µmol/min/mg. Same read-out and setting: the same measure for `CCCCCC(N)=O` [hexanoamide]: 9.3 µmol/min/mg. Consider `NC(=O)CI` [iodoacetamide], for which the “Amidase activity in %” value in the series with amidase [3] is on record as 90%. On the same count and under the same terms, the same measure for `O=C(O)CI` [iodoacetate]: 22%.

Molecule `CC(C)C(N)=O` [isobutyramide] registered a Specific activity with amidase [1] (setting [7]) of 13.5 µmol/min/mg. As to `NC(=O)c1ccncc1` [isonicotinamide], the Specific activity in the series with amidase [1] (setting [9]) was 7.1 µmol/min/mg. With `NC(=O)CC(N)=O` [malonamide], the Specific activity in the series on amidase [1] (setting [7]) turned out to be 7.4 µmol/min/mg. For the molecule `C=C(C)C(N)=O` [methacrylamide], the Specific activity in the series with amidase [1] (setting [7]) was found to be 23.5 µmol/min/mg. `NC(=O)c1cccnc1` [nicotinamide]: in the series with amidase [1] (setting [9]), the Specific activity stood at 11.6 µmol/min/mg. As for `NC(=O)c1ccccc1O` [o-hydroxybenzamide], the Specific activity in the series with amidase [1] (Aromatic amides, 1 h at 70° C.) was 7.4 µmol/min/mg.

Regarding `CC(C)(C)C(N)=O` [pivalamide], in the series on amidase [1] (setting [7]), the Specific activity stood at 14.9 µmol/min/mg. Still for that read-out and setting: the same measure for `CCC(N)=O` [propionamide]: 25.4 µmol/min/mg. Consider `NC(=O)c1cnccn1` [pyrazinamide], for which the Specific activity with amidase [1] (setting [9]) is 11.2 µmol/min/mg.

`NC(=O)CCC(N)=O` [succinamide] yielded a Specific activity in the series with amidase [1] (setting [7]) of 4.0 µmol/min/mg. Same read-out and setting: the same measure for `NC(N)=O` [urea]: 17.5 µmol/min/mg. Consider Triton X-100, for which, in the series on amidase [3], the “sensitivity of the amidases” value was “insensitive” and the “Amidase activity in %” value is given as 100%.

m-tolylamide displayed a Specific activity in the series with amidase [1] of 12.7 µmol/min/mg. Turning to p-tolylamide, the Specific activity with amidase [1] (Aromatic amides, 1 h at 70° C.) is 13.1 µmol/min/mg.

B1: amidase: thermally stable amidase purified from Pseudonocardia thermophila (DSMZ 43832); SEQ ID No. 1, 2, 3 (protein, listed as Pseudonocardia thermophila)
chain 1: IHMPDPDAV
chain 2: DGLPVGLMIVGKHF
chain 3: MIHMPDPDAVARMAAEGRFGIPVVVICRTYHDLGHRPARLVEQGRRAVRGGGPHPAAALVDPPRRRGRQARRVGGADLDHRNLGGAARRPHGRGQDNVAVAGVPMMNGSRTLEGFVPAEDATVVSRLLAAGATIAGKSVCEDLCFSGGSHTSKPGTVHNPWDMSRSAGGSSSGSGALVAAGEVDMAIGGDQGGSIRIPSAYCGTVGHKPTHGLVPYTGGFPIEQSIDHLGPITRTVADAALMLSVIAGRDGLDPRQPDVVEVQDYVGALAESVSGLRIGVLQEGFGHPNSEPEVDDTVRAAVGTLREAGFTVEDVSVPWHLHATAIWDVLATEGGLWQMVEGNAYGMHWKGHYDPSLIAYYGRKWREDPAQFSETVKLVALAGRYALTTQYGRHYAMARNLAPKLVAAYDAALSNYDVLVMPTLPMRATVLPGPDAPVEEILARGLEMLANTAPFDVTGHPACSVPAGLADGLPVGLMIVGKHFDDATVLKVANAFEQAVGGFPTPAAZ
In series [4] (Novex polyacrylamide gel), B1 returned an isoelectric point of 4.2 pH. The “IEF point pH” value in series [4] (Table 4, inventive amidase) is 4.2 pH. Further, the “enzymatic activity over time (thermal stability)” value in series [5] is given as “decreases rapidly”. The Specific activity in series [6] is recorded as 19.5 U/mg of protein. Moreover, the “Substrate specificity (amides)” value with amidase [1] (Table 4, inventive amidase) was “Al, Ar, Cy, As”.
